Measured values published in patent publication US10561712B2, “Treatment of cancer and inhibition of metastasis using hemoglobin beta subunit” (UNIVERSITY OF MARYLAND, BALTIMORE, priority 2014, dated 2020).

Key:
[1] = tested on: MCF-7 breast carcinoma cells; assay: Viability of cancerous cell lines, MCF-7; conditions: MTS-based assay; FIG. 3E
Description: (§1) Neuroblastoma cells were seeded (3×10^4 per well) in a 96-well flat-bottomed tissue culture plate. After an incubation of 24 hr, cells were washed and incubated with the relevant factors (detailed in the following sections) diluted in starvation medium (RPMI-1640 containing 5% bovine serum albumin (BSA); Biological Industries, Kibbutz Beit Haemek, Israel; Sigma-Aldrich). Cell viability under normal conditions (starvation medium containing BSA) or after incubation with the relevant factors was monitored after 72 hr using an XTT (XTT cell proliferation kit; Biological Industries) or MTS-based (CellTiter 96® AQueous One Solution Cell Proliferation Assay; Promega) viability assays according to manufacturer instructions. Cells were also counted using the trypan-blue exclusion assay to verify the results obtained by XTT and MTS-based viability assays.
When incubated with the highest amount of HBB (100 μg), the viability of the following cell lines was inhibited: the breast cancer cell lines T47D and MCF-7, the prostate cancer cell line 22RVi, the cervical cancer cell line Hela, and the melanoma cell lines RALL and RKTJ.

[2] = tested on: HPEC (Human pulmonary endothelial cells); assay: Viability of normal cells, HPEC; format: cell-based; conditions: normal lung-residing cell line, data not shown
From the text: (§2) The influence of HBB on the viability of the normal lung-residing cell lines HPEC (Human pulmonary endothelial cells) and HLMEC (Human lung microvascular endothelial cells) and on the normal kidney cell line 293T and 293A was examined as well.

[3] = tested on: normal kidney cell line 293T; assay: Viability of normal cells, 293T; format: cell-based; conditions: data not shown
From the text: as §2

MicroNB cells [4] = assay: Trypan blue exclusion assay, MicroNB cells; format: cell-based, human; conditions: incubation with HBB, results not shown
Description: as §1
(§3) The HBB-mediated inhibitory activity was dose dependent (results not shown).

MacroNB cells = assay: Trypan blue exclusion assay, MacroNB cells; format: cell-based, human; conditions: incubation with HBB, results not shown
Description: as §1, §3

[5] = tested on: ERK1/2 phosphorylation in MicroNB cells; assay: ERK1/2 phosphorylation (western blot), MicroNB cells; format: cell-based, human; conditions: HBB (1 μg) for 48 hr; in reference to total ERK2; FIG. 4A
Description: (§4) Lysates of neuroblastoma cells and of mouse organs were resolved on SDS-PAGE after the addition of Laemmli sample buffer, and transferred onto nitrocellulose membrane. The total amount of protein in the lanes was assessed by Ponceau staining prior to blocking of the membrane. The membrane was blocked at room temperature with 3% BSA (Sigma-Aldrich) diluted in TBS-Tween (TBST) for 1 hr. For detection of the target proteins, membranes were incubated with relevant primary antibodies (see “Antibodies”), then washed 3 times×5 min with TBSTX1 and incubated with suitable HRP-conjugated secondary antibodies (see “Antibodies”). Membranes were washed again 5 times×3 min with TBSTX1. The bands were visualized by chemiluminescence-ECL reactions and autoradiography by exposure to Fuji film. The amount of the relevant protein in the lanes was estimated by densitometry using Scion Image software (Scion, Frederick, Md., USA).
(§5) Neuroblastoma cells (5×10^6) were plated and after 24 hr the growth medium was replaced with starvation medium (RPMI 0.5% FCS) for 24 hr. […] ERK1/2 phosphorylation was calculated in reference to total ERK2 protein, p38 and TAK1 phosphorylation was calculated in reference to total p38 and TAK1, respectively, as measured by densitometry using Scion Image software (Scion). […]

[6] = tested on: ERK1/2 phosphorylation in MacroNB cells; assay: ERK1/2 phosphorylation (western blot), MacroNB cells; format: cell-based, human; conditions: HBB (1 μg) for 48 hr; in reference to total ERK2; FIG. 4A
Description: as §4, §5

MicroNB cells [7] = assay: Cell cycle analysis by flow cytometry, MicroNB cells; format: cell-based, human; conditions: HBB (1 μg) for 48 hr
Description: Neuroblastoma cells (5×10^5) were plated and after 24 hr, cells were incubated for 48 hr with HBB diluted in starvation medium (RPMI 5% BSA) to a concentration of 10 μg/ml. Neuroblastoma cells incubated with starvation medium containing BSA alone served as control. Cells were pelleted, washed and resuspended in 0.5 ml PBSX1, containing 0.05 ml propidium iodide (PI) (P-4170, Sigma) (50 μg/ml), and 0.05 ml Triton X-100 (Sigma-Aldrich). Flow cytometry analysis was performed using Becton Dickinson FACSort and CellQuest software (Becton Dickinson, Mountain View, Calif.).
The cells were also subjected to measurement of cellular DNA content and cell cycle analysis using flow cytometry. Incubation with human HBB elevated the amount of MicroNB and MacroNB cells in the sub GO phase, by 18% and 11%, respectively (data not shown).

[8] = tested on: Cyclin D1 expression in MicroNB cells; assay: Cyclin D1 expression (western blot), MicroNB cells; format: cell-based; conditions: incubated with human HBB, 48 hr; in reference to beta-tubulin; FIG. 4C
Description: Lysates of neuroblastoma cells and of mouse organs were resolved on SDS-PAGE after the addition of Laemmli sample buffer, and transferred onto nitrocellulose membrane. The total amount of protein in the lanes was assessed by Ponceau staining prior to blocking of the membrane. The membrane was blocked at room temperature with 3% BSA (Sigma-Aldrich) diluted in TBS-Tween (TBST) for 1 hr. For detection of the target proteins, membranes were incubated with relevant primary antibodies (see “Antibodies”), then washed 3 times×5 min with TBSTX1 and incubated with suitable HRP-conjugated secondary antibodies (see “Antibodies”). Membranes were washed again 5 times×3 min with TBSTX1. […]
Neuroblastoma cells (5×10^6) were plated and after 24 hr cells were incubated for 48 hr with human HBB diluted in starvation medium (RPMI 5% BSA) to a concentration of 10 μg/ml. […] Cyclin D1 expression was calculated in reference to β-tubulin expression in the lane as measured by densitometry using Scion Image software (Scion).
Whole cell lysates of MicroNB and MacroNB cells incubated with human HBB were subjected to western blot analysis and immunostaining. […] Cyclin D1 expression was calculated in reference to beta-tubulin. […] Significance was evaluated using Student's t-test for each analysis after incubation with HBB compared to incubation with control media.

HBB: beta subunit of human hemoglobin, 147 amino acids, SEQ ID NO:2, HPLC-purified from native human hemoglobin
influence on viability of MCF-7 breast carcinoma cells (in words) [1]: inhibits the viability | influence on the viability of normal cells [2]: did not influence the viability | influence on the viability of normal cells [3]: did not influence the viability | non-viable MicroNB cells following incubation (MicroNB cells [4]): 16% | non-viable MacroNB cells following incubation (MacroNB cells): 8% | ERK phosphorylation in MicroNB cells [5]: decreased | ERK phosphorylation in MacroNB cells [6]: decreased | elevation of the amount of MicroNB cells in G0-G1 phase (MicroNB cells [7]; FIG. 4B): 59% | elevation of the amount of MicroNB cells in the sub G0 phase (MicroNB cells [7]; data not shown): 18% | Cyclin-D1 expression in MicroNB cells [8]: significant decline
